Data published in patent US12187709B2 (Genentech, Inc., priority 2021, dated 2025).

Tests used:
Cbl-b = Cbl-b (Homo sapiens (Human), UniProt Q13191); test: Cbl-b LCK Ub TR-FRET assay (Cbl-b Lck HTRF); assay type: biochemical; settings: for IC50: Cbl-b LCK Ub TR-FRET; for fold-selectivity (Cbl-b over C-cbl): ratio C-cbl Lck HTRF IC50 / Cbl-b Lck HTRF IC50
Summary of the method: (§1)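 Signal is read once the detection mix has stood 20 min at ambient temperature. Curves are anchored by DMSO as maximum and by omission of LCK as minimum.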

c-Cbl = c-Cbl (Homo sapiens (Human), UniProt P22681); test: C-Cbl LCK Ub TR-FRET assay (C-cbl Lck HTRF); assay type: biochemical
Sequence of c-Cbl (P22681 47-435): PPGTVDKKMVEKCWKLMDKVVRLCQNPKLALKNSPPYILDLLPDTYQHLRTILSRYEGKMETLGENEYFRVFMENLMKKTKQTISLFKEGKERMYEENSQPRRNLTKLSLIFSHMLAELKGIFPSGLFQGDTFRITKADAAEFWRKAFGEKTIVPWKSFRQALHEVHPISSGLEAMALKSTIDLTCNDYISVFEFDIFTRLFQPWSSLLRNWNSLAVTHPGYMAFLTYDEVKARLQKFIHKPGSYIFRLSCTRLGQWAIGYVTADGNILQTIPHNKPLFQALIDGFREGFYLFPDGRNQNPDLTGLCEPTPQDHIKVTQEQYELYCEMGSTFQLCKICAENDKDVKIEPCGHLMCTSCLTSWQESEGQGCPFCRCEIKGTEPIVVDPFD
Summary of the method: as §1

[1] = molecular target: Human Cbl-b (residues 40-426) (Homo sapiens (Human), UniProt Q13191); test: Cbl-b SPR assay; assay type: binding; settings: for Fold of selectivity: C-cbl SPR Kd vs Cbl-b SPR Kd; for Kd: SPR, 20° C.
Sequence of Human Cbl-b (residues 40-426) (Q13191 40-426): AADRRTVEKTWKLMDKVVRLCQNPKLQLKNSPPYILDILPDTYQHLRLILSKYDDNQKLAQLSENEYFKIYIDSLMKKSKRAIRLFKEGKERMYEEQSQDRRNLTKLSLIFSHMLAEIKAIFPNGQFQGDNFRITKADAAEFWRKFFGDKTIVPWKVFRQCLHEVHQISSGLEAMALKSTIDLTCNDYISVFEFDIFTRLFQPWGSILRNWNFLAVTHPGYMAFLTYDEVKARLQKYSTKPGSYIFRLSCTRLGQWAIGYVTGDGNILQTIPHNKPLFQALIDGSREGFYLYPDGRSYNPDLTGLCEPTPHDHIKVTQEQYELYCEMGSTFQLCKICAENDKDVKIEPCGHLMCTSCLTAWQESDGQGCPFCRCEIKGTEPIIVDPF
Summary of the method: (§2)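 Captured protein (1300-1500 RU for both isoforms) was probed in multi-cycle kinetics with 6 concentrations in 2-fold dilution, 60 s contact, 40 μl/min, dissociation 120-1200 s, double-referenced. Kinetic and affinity parameters came from a 1:1 binding fit. For slow off-rates, kd was set independently by a chaser-based method.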

c-Cbl (residues 47-435) = c-Cbl (residues 47-435) (Homo sapiens (Human), UniProt P22681); test: c-Cbl SPR assay; assay type: binding; settings: 20° C.
Sequence of c-Cbl (residues 47-435) (P22681 47-435): as the sequence (P22681 47-435) above
Summary of the method: as §2

Sequence of Cbl-b (Q13191 40-426): as the sequence (Q13191 40-426) above

| SMILES | IC50 (Cbl-b) [nM] | fold-selectivity (Cbl-b over C-cbl) (Cbl-b) | IC50 (c-Cbl) [nM] | Fold of selectivity [1] [×] | Kd [1] [nM] | Kd (c-Cbl (residues 47-435)) [nM] |
| --- | --- | --- | --- | --- | --- | --- |
| Cn1cnnc1[C@]1(c2cccc(N3Cc4c(cc(CNC5(C)CCC5)cc4C(F)(F)F)C3=O)c2)C[C@@](C)(O)C1 [Compound 27, 2-(3-((1r,3r)-3-hydroxy-3-methyl-1-(4-methyl-4H-1,2,4-triazol-3-yl)cyclobutyl)phenyl)-6-(((1-methylcyclobutyl)amino)methyl)-4-(trifluoromethyl)isoindolin-1-one] | 170 | (3.0x) | 510 | 7.2 | 60 | 430 |
| CO[C@]1(C)C[C@@](c2cccc(N3Cc4c(cc(CNC5(C)CCC5)cc4C(F)(F)F)C3=O)c2)(c2nncn2C)C1 [Compound 28, 2-(3-((1r,3r)-3-methoxy-3-methyl-1-(4-methyl-4H-1,2,4-triazol-3-yl)cyclobutyl)phenyl)-6-(((1-methylcyclobutyl)amino)methyl)-4-(trifluoromethyl)isoindolin-1-one] | 13 | (2.7x) | 35 | 5.5 | 2.5 | 13 |
| Cn1cnnc1[C@]1(c2cccc(N3Cc4c(cc(CNC5(C)CCC5)cc4C(F)(F)F)C3=O)c2)C[C@](C)(F)C1 [Compound 30, 2-(3-((1s,3s)-3-fluoro-3-methyl-1-(4-methyl-4H-1,2,4-triazol-3-yl)cyclobutyl)phenyl)-6-(((1-methylcyclobutyl)amino)methyl)-4-(trifluoromethyl)isoindolin-1-one] | 17 | (1.6x) | 27 | 3.8 | 2.6 | 9.8 |
| Cn1cnnc1[C@]1(c2cccc(N3Cc4c(cc(CNC5(C)CCC5)cc4C(F)(F)F)C3=O)c2)C[C@H](C)C1 [Compound 34, 2-(3-((1s,3s)-3-methyl-1-(4-methyl-4H-1,2,4-triazol-3-yl)cyclobutyl)phenyl)-6-(((1-methylcyclobutyl)amino)methyl)-4-(trifluoromethyl)isoindolin-1-one] | 12 | (0.94x) | 11 | 0.6 | 4 | 2.3 |
| Cn1cnnc1[C@]1(c2cccc(N3Cc4c(cc(CNC5(C)CCC5)cc4C(F)(F)F)C3=O)c2)C[C@@H](C)C1 [Compound 35, 2-(3-((1r,3r)-3-methyl-1-(4-methyl-4H-1,2,4-triazol-3-yl)cyclobutyl)phenyl)-6-(((1-methylcyclobutyl)amino)methyl)-4-(trifluoromethyl)isoindolin-1-one] | 9.1 | (0.97x) | 8.8 | 3.4 | 0.5 | 1.7 |
| Cn1cnnc1[C@]1(c2cc(NC3CC(F)(F)C3)nc(N3Cc4c(cc(CNC5(C)CCC5)cc4C(F)(F)F)C3=O)c2)C[C@H](C)C1 [Compound 49, 2-(6-((3,3-difluorocyclobutyl)amino)-4-((1s,3s)-3-methyl-1-(4-methyl-4H-1,2,4-triazol-3-yl)cyclobutyl)pyridin-2-yl)-6-(((1-methylcyclobutyl)amino)methyl)-4-(trifluoromethyl)isoindolin-1-one] | 14 | (1.4x) | 19.6 | 7.0 | 2.2 | 16 |
| Cn1cnnc1C1(c2cccc(N3Cc4c(cc(CNC5(C)CCC5)cc4C(F)(F)F)C3=O)c2)CC(F)(F)C1 [Compound 61, 2-(3-(3,3-difluoro-1-(4-methyl-4H-1,2,4-triazol-3-yl)cyclobutyl)phenyl)-6-(((1-methylcyclobutyl)amino)methyl)-4-(trifluoromethyl)isoindolin-1-one] | 15 | (1.7x) | 25.5 | 5.2 | 3.7 | 20 |
| CO[C@H]1C[C@](c2cc(NC3CCCC3)nc(N3Cc4c(cc(CNC5(C)CCC5)cc4C(F)(F)F)C3=O)c2)(c2nncn2C)C1 [Compound 70, 2-(6-(cyclopentylamino)-4-((1R,3R)-3-methoxy-1-(4-methyl-4H-1,2,4-triazol-3-yl)cyclobutyl)pyridin-2-yl)-6-(((1-methylcyclobutyl)amino)methyl)-4-(trifluoromethyl)isoindolin-1-one] | 17 | (9.3x) | 158 | 20 | 11 | 220 |

Continued by falling IC50 (Cbl-b), values first:

| IC50 (Cbl-b) [nM] | fold-selectivity (Cbl-b over C-cbl) (Cbl-b) | IC50 (c-Cbl) [nM] | Fold of selectivity [1] [×] | Kd [1] [nM] | Kd (c-Cbl (residues 47-435)) [nM] | SMILES |
| --- | --- | --- | --- | --- | --- | --- |
| 2400 | (2.4x) | 5300 | 4.5 | 0.4 | 1.8 | CC(C)[C@H]1CN(C)CCN1Cc1cc2c(c(C(F)(F)F)c1)CN(c1cc([C@]3(c4nncn4C)C[C@@H](C)C3)cc(OC3CCCC3)n1)C2=O [Compound 72, 2-(6-(cyclopentyloxy)-4-((1S,3R)-3-methyl-1-(4-methyl-4H-1,2,4-triazol-3-y)cyclobutyl)pyridin-2-yl)-6-(((S)-2-isopropyl-4-methylpiperazin-1-yl)methyl)-4-(trifluoromethyl)isoindolin-1-one] |
| 280 | (2.0x) | 560 | 3.1 | 140 | 440 | Cn1cnnc1C1(c2cccc(N3Cc4c(cc(CNC5(C)CCC5)cc4C(F)(F)F)C3=O)c2)COC1 [Compound 58, 2-(3-(3-(4-methyl-4H-1,2,4-triazol-3-yl)oxetan-3-yl)phenyl)-6-(((1-methylcyclobutyl)amino)methyl)-4-(trifluoromethyl)isoindolin-1-one] |
| 30 | (3.3x) | 99 | 9.0 | 10 | 90 | Cn1cnnc1[C@]1(c2cccc(N3Cc4c(cc(CNC5(C)CCC5)cc4C(F)(F)F)C3=O)c2)C[C@](C)(O)C1 [Compound 26, 2-(3-((1s,3s)-3-hydroxy-3-methyl-1-(4-methyl-4H-1,2,4-triazol-3-yl)cyclobutyl)phenyl)-6-(((1-methylcyclobutyl)amino)methyl)-4-(trifluoromethyl)isoindolin-1-one] |
| 20 | (3.1x) | 62 | 19 | 3.7 | 68 | Cn1cnnc1C1(c2cccc(N3Cc4c(cc(CNC5(C)CCC5)cc4C(F)(F)F)C3=O)c2)CC2(COC2)C1 [Compound 65, 2-(3-(6-(4-methyl-4H-1,2,4-triazol-3-yl)-2-oxaspiro[3.3]heptan-6-yl)phenyl)-6-(((1-methylcyclobutyl)amino)methyl)-4-(trifluoromethyl)isoindolin-1-one] |
| 11 | (4.9x) | 54 | 6.9 | 3.3 | 23 | CO[C@H]1C[C@@](c2cc(NC3CCCC3)nc(N3Cc4c(cc(CNC5(C)CCC5)cc4C(F)(F)F)C3=O)c2)(c2nncn2C)C1 [Compound 69, 2-(6-(cyclopentylamino)-4-((1S,3S)-3-methoxy-1-(4-methyl-4H-1,2,4-triazol-3-yl)cyclobutyl)pyridin-2-yl)-6-(((1-methylcyclobutyl)amino)methyl)-4-(trifluoromethyl)isoindolin-1-one] |
| 10 | (1.5x) | 15 | 3.0 | 3.8 | 11 | Cn1cnnc1[C@]1(c2cc(NC3CC(F)(F)C3)nc(N3Cc4c(cc(CNC5(C)CCC5)cc4C(F)(F)F)C3=O)c2)C[C@@H](C)C1 [Compound 48, 2-(6-((3,3-difluorocyclobutyl)amino)-4-((1r,3r)-3-methyl-1-(4-methyl-4H-1,2,4-triazol-3-yl)cyclobutyl)pyridin-2-yl)-6-(((1-methylcyclobutyl)amino)methyl)-4-(trifluoromethyl)isoindolin-1-one] |
| 8.5 | (0.8x) | 7.1 | 4.3 | 0.24 | 1 | Cn1cnnc1[C@]1(c2cc(NC3CCC3)nc(N3Cc4c(cc(CNC5(C)CCC5)cc4C(F)(F)F)C3=O)c2)C[C@@H](C)C1 [Compound 68, 2-(6-(cyclobutylamino)-4-((1R,3R)-3-methyl-1-(4-methyl-4H-1,2,4-triazol-3-yl)cyclobutyl)pyridin-2-yl)-6-(((1-methylcyclobutyl)amino)methyl)-4-(trifluoromethyl)isoindolin-1-one] |
| 6.5 | (0.9x) | 5.9 | 1.5 | 0.36 | 0.53 | Cn1cnnc1[C@]1(c2cc(NC3CCC3)nc(N3Cc4c(cc(CNC5(C)CCC5)cc4C(F)(F)F)C3=O)c2)C[C@H](C)C1 [Compound 67, 2-(6-(cyclobutylamino)-4-((1S,3S)-3-methyl-1-(4-methyl-4H-1,2,4-triazol-3-yl)cyclobutyl)pyridin-2-yl)-6-(((1-methylcyclobutyl)amino)methyl)-4-(trifluoromethyl)isoindolin-1-one] |
